Key:
[1] = molecular target: T1, GST-SHP1-SH2 (Homo sapiens, UniProt P29350); assay: Binding to GST-SHP1-SH2 by immunoprecipitation and western blot; conditions: 200 nM GST-SHP1-SH2, 15 nM phosphopeptide or cytoplasmic domain fusion, TBST, 4° C. overnight
T1 construct: Amino acids 2-221 of SHP1 were cloned as a EcoRI/BglII fragment into pGEX-3X; made in house; host or cells: E. coli
T1 sequence (P29350 2-221): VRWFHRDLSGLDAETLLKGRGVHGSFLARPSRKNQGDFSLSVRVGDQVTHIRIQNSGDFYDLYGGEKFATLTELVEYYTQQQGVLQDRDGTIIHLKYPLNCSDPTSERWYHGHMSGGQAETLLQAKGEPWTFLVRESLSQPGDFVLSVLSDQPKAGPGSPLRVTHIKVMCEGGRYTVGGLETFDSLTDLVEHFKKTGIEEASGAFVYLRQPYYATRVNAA
Experimental: The GST-SHP1-SH2 construct consists of the two SH2 domains of SHP1fused downstream of GST. Amino acids 2-221 of SHP1 were cloned as a EcoRI/BglII fragment into pGEX-3X and expressed in E. coli.
(§1) Bindings were done as immunoprecipitations. Binding concentrations were typically 200 nM GST-SHP2-SH2 or GST-SHP1-SH2 and 15 nM phosphopeptide or cytoplasmic domain fusion in TBST (20 mM Tris, 150 mM NaCl, 0.1% Tween 20, pH 7.4) at 4° C. overnight. After binding either anti-flag mAb, M2, was added (for the phosphopeptide and flag tagged GST-OB-R-cyto) or anti-myc mAb, 9E10, was added (for the myc tagged GST-OB-R-cyto) and the proteins were precipitated with protein G-sepharose. Proteins were then detected on western blots using anti-GST polyclonal antibodies. For the EPOR-cyto-Trx fusion, the protein complexes were precipitated with glutathione-sepharose and the EPOR-cyto-Trx fusion was detected with anti-Trx polyclonal antibodies.

[2] = system: EPOR-cyto-Trx and GST-SHP1-SH2; assay: Competition of EPOR-cyto-Trx for GST-SHP1-SH2 binding; conditions: 4 μM peptide, 15 nM EPOR-cyto-P, 200 nM GST-SHP1-SH2
Experimental: FIG. 10. Competition for GST-SHP1-SH2 or GST-SHP2-SH2 binding to EPOR-cyto-P by a phosphopeptide derived from the sequence surrounding Y401 of the cytoplasmic domain of the EPO receptor. 200 nM GST-SHP1-SH2 or GST-SHP2-SH2, 15 nM EPOR-cyto-P, with and without 4 μM peptide were incubated together. GST-SHP1-SH2 or GST-SHP2-SH2 was immunoprecipitated with Glutathione Sepharose (Pharmacia), and co-precipitating EPOR-cyto-P was visualized with an anti-Trx antibody.
as §1
In this competition the complexes were precipitated with glutathione-sepharose and the EPOR-cyto-Trx was detected by western blot using anti-Trx antibodies. […]

[3] = molecular target: T2, GST-OB-R-cyto/3myc and GST-SHP2-SH2 (Homo sapiens, UniProt Q06124); assay: Competition for binding of GST-OB-R-cyto/3myc and GST-SHP2-SH2; conditions: 4 μM phosphopeptide, 15 nM cytoplasmic domain, 200 nM GST-SHP2-SH2
T2 construct: The fusion has aa 2-224 of SHP2 cloned as an EcoRI/BamHI fragment into pGEX-3X; made in house; host or cells: E. coli (OB-R-cyto co-expressed with the ELK tyrosine kinase)
T2 sequence (Q06124 2-224): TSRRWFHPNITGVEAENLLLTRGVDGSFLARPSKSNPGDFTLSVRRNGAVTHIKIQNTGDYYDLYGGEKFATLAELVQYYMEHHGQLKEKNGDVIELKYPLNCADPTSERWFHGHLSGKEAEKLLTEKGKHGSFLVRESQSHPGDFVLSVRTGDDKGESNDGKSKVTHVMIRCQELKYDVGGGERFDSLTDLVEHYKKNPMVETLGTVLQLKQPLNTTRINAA
Experimental: (§2) FIG. 9. Competition for GST-SHP1-SH2 or GST-SHP2-SH2 binding to OB-R-cyto-P by a phosphopeptide containing the sequence surrounding Y986 in OB-R. 200 nM GST-SHP1-SH2 or GST-SHP2-SH2, 15 nM OB-R-cyto-P, with and without 4 μM peptide were incubated together. OB-R-cyto-P was immunoprecipitated with an antibody to the myc epitope tag, and co-precipitating GST-SHP1-SH2 or GST-SHP2-SH2 was visualized with an anti-GST antibody.
as §1, with “After binding either anti-flag mAb, M2, was added (for the phosphopeptide and flag tagged GST-OB-R-cyto) or anti-myc mAb, 9E10, was added (for the myc tagged GST-OB-R-cyto) and the proteins were precipitated with protein G-sepharose.” left out
(§3) In this experiment the SH2 domain, the cytoplasmic domain, and the peptide were mixed and allowed to reach equilibrium. The receptor cytoplasmic domain was precipitated with anti-myc mAb and complexed GST-SHP1-SH2 and GST-SHP2-SH2 were detected by western blot with an anti-GST antibody.

[4] = molecular target: T3, GST-OB-R-cyto/3myc and GST-SHP1-SH2 (Homo sapiens, UniProt P29350); assay: Competition for binding of GST-OB-R-cyto/3myc and GST-SHP1-SH2; conditions: 4 μM phosphopeptide, 15 nM cytoplasmic domain, 200 nM GST-SHP1-SH2
T3 construct: Amino acids 2-221 of SHP1 were cloned as a EcoRI/BglII fragment into pGEX-3X; made in house; host or cells: E. coli (OB-R-cyto co-expressed with the ELK tyrosine kinase)
T3 sequence (P29350 2-221): T1 sequence (P29350 2-221)
Experimental: as §2
as §1, with “After binding either anti-flag mAb, M2, was added (for the phosphopeptide and flag tagged GST-OB-R-cyto) or anti-myc mAb, 9E10, was added (for the myc tagged GST-OB-R-cyto) and the proteins were precipitated with protein G-sepharose.” left out
as §3

[5] = molecular target: T4, GST-SHP2-SH2 (Homo sapiens, UniProt Q06124); assay: Binding to GST-SHP2-SH2 by immunoprecipitation and western blot; conditions: 200 nM GST-SHP2-SH2, 15 nM phosphopeptide or cytoplasmic domain fusion, TBST, 4° C. overnight
T4 construct: The fusion has aa 2-224 of SHP2 cloned as an EcoRI/BamHI fragment into pGEX-3X; made in house; host or cells: E. coli
T4 sequence (Q06124 2-224): T2 sequence (Q06124 2-224)
Source text: The GST-SHP2-SH2 construct consists of the two SH2 domains of SHP2fused downstream of glutathione-S-transferase (GST) from Schistosoma japonicum. The fusion has aa 2-224 of SHP2 cloned as an EcoRI/BamHI fragment into pGEX-3X and was expressed in E. coli. The SHP2-SH2-Fc construct consists of the same amino acids as the above fusion fused to human IgG-Fc as a BlpI/SrfI fragment in pMT21 and was expressed in COS-7 cells.
as §1

[6] = molecular target: T5, TOBRY986F (Homo sapiens, UniProt P48357+Q16288, Y986F); assay: Luciferase reporter gene assay, TrkC-OB-R chimeric receptor TOBRY986F in neuroblastoma (NBFL) cells; type: cell-based; conditions: NT-3 at 20 ng/ml for 36 hours
T5 construct: TrkC (amino acids 1 to 458) to the cytoplasmic domain of OB-R (amino acids 865-1165); expressed in transfected cells; host or cells: NBFL neuroblastoma cells

[7] = molecular target: T6, TrkC--OB-R chimera (TOBR) (Homo sapiens, UniProt P48357+Q16288); assay: Immunoprecipitation and western blotting of tyrosine phosphorylation, NT-3-stimulated COS cells expressing TOBR; type: cell-based; conditions: 50 ng/ml human NT-3 for 15 min
T6 construct: TrkC (amino acids 1 to 458) to the cytoplasmic domain of OB-R (amino acids 865-1165); expressed in transfected cells; host or cells: COS-7
Experimental: The cytoplasmic domain and full-length human OB-R was cloned by PCR using human fetal liver and adipocyte cDNA (Clontech) and cloned into the expression vectors pCMX and pMT21. Chimeric receptors were constructed by fusing the extracellular domain and transmembrane domain of TrkC (amino acids 1 to 458) to the cytoplasmic domain of OB-R (amino acids 865-1165). A triple myc epitope tag was added at the C-terminus of all OB-R constructs (18). Truncation and point mutant constructs were generated by PCR and the sequences of all constructs were verified. Expression constructs were transfected into COS-7 cells using lipofectamine (GIBCO-BRL); 36-48 hours after transfection, cells were starved for either 2 hour,s for chimeric receptors or overnight for full-length receptors prior to stimulation.
Cells were stimulated with 50 ng/ml of human NT-3 for 15 min or 100 ng/ml of human leptin (R&D Systems) for 10 min. Cells were then lysed in a 1% Brij 96 buffer and receptor was immunoprecipitated with anti-myc antibody 9E10 (18) followed by protein G-sepharose (Pharmacia). Unbound lysate was then immunoprecipitated with anti-P-Tyr antibody (UBI, Lake Placid) or agarose-conjugated anti-SHP-2 antibody (Santa Cruz Biotechnology). […] Endogenous STAT3, SHP-2, Jak1 and Jak2 is being detected in all immunoblotting experiments. […]

[8] = molecular target: T7, TOBR (TrkC-OB-R chimeric receptor) (Homo sapiens, UniProt P48357+Q16288); assay: Luciferase reporter gene assay, TrkC-OB-R chimeric receptor TOBR in neuroblastoma (NBFL) cells; type: cell-based; conditions: NT-3 at 20 ng/ml for 36 hours
T7 construct: TrkC (amino acids 1 to 458) to the cytoplasmic domain of OB-R (amino acids 865-1165); expressed in transfected cells; host or cells: NBFL neuroblastoma cells

Substance | binding to GST-SHP1-SH2 [1] | binding to GST-SHP1-SH2 ([1]; listed as synthetic phosphopeptide from EPOR) | competition of EPOR-cyto-Trx for GST-SHP1-SH2 binding [2] | competition for binding of GST-OB-R-cyto/3myc and GST-SHP2-SH2 [3] | competition for binding of GST-OB-R-cyto/3myc and GST-SHP1-SH2 [4] | binding to GST-SHP2-SH2 [5] | increase in luciferase activity [6] [fold] | tyrosine phosphorylation of TOBR and downstream signaling molecules [7] | increase in luciferase activity [8] [fold]
CPHLKp-YLYLVVSDDYKDDDDK [EPOR phosphopeptide] | bound | Very poor binding | a small amount of competition |  |  |  |  |  | 
QPFVKp-YATLISNDYKDDDDK [OB-R phosphopeptide] | bound |  | a small amount of competition | no competition | no competition | bound specifically |  |  | 
NT-3: neurotrophin-3, surrogate ligand used to activate the TrkC-OB-R chimeric receptors |  |  |  |  |  |  | ~45 | resulted in ligand-dependent tyrosine phosphorylation | ~8

From patent publication US20020012949A1, “Assay systems for leptin-enhancing agents” (priority 1997, published 2002)
